Results published in patent publication US20260001928A1 (CORTERIA PHARMACEUTICALS, priority 2022, published 2026).
*1 amine or outer side, *2 acyl side, *3 side chain or, on linkers, in order; H or OH if unused. Where a SMILES comes first, the peptide text is derived from it. Side-chain parts run from the residue outwards. [ ]: non-standard residue; d: D form. The star is where a group is joined. C18 diacid = O=C(O)CCCCCCCCCCCCCCCCC(=O)*; C16 diacid = O=C(O)CCCCCCCCCCCCCCC(=O)*; γGlu = O=C(O)[C@H](CCC(=O)[*:2])N[*:1]; C12 diacid = O=C(O)CCCCCCCCCCC(=O)*; NMeI = CC[C@H](C)[C@H](NC)C(=O)O; Api = NC1(C(=O)O)CCNCC1; Pentanoyl = CCCCC(=O)*; AEEA = NCCOCCOCC(=O)O; Aib = CC(C)(N)C(=O)O

Legend:
human CRF2a receptor = molecular target: T1, human CRF2a receptor (Homo sapiens, UniProt Q13324); assay: Activity at human CRF2a receptor, cAMP functional assay in TeloHEAC cells; type: cell-based; settings: TeloHEAC cells stably expressing human CRF2a receptor, relative to urocortin 2 (100 nM = 100%)
T1 construct: expressed in transfected cells; host or cells: TeloHEAC cells
T1 sequence (Q13324 1-411): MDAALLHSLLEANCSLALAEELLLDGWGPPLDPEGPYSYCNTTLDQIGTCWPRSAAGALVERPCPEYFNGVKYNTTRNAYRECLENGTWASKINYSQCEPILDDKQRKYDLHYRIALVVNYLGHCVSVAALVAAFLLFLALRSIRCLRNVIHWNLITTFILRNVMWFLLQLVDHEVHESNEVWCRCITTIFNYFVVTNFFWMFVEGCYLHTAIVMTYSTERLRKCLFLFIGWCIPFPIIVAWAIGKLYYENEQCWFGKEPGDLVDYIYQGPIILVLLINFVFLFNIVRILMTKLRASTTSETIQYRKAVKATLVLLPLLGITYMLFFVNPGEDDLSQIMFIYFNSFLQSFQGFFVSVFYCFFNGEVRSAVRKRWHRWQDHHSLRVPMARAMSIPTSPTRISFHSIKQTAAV
Summary of the method: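 TeloHEAC cells stably expressing human CRF2a (10000 cells/well, suspended in HBSS/20 mM HEPES with 2 mM IBMX) were exposed to compounds for 30 min at 37 °C. cAMP was read as the 665/620 nm fluorescence ratio after 1 h at room temperature. EC50 was derived relative to 100 nM urocortin 2, set as 100%.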

CFR1R receptor = molecular target: T2, CFR1R receptor (Homo sapiens, UniProt P34998); assay: Activity at anti-target CFR1R receptor, cAMP assay in CRF1R-overexpression CHO-K1 cells; type: cell-based; settings: 100% = Sauvagine at 100 nM; for EC50: cAMP
T2 construct: host or cells: CHO-K1 (clone 2)
T2 sequence (P34998 24-415): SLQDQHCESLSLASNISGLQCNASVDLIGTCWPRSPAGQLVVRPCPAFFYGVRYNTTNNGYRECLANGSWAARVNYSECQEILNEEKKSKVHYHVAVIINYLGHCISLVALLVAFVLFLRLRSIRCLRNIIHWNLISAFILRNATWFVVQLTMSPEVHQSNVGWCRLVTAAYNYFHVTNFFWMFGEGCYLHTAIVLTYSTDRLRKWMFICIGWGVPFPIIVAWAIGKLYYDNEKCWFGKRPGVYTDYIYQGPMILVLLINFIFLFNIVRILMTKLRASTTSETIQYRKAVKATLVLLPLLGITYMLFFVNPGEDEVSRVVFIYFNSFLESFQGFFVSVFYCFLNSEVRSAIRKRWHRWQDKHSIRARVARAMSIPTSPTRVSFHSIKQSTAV
Summary of the method: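 Clone 2 cells were cultured in F12 (Hams)/10% FBS/400 μg/ml G418 at 37° C./5% CO2, frozen in medium with 10% DMSO, and thawed vials used. The protocol followed the TeloHAEC procedure, with 4000 cells/well final and Sauvagine at 100 nM defining 100% activation.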

| SMILES | EC50 (human CRF2a receptor) [nM] | Emax (% I) (CFR1R receptor) | EC50 (CFR1R receptor) [nM] |
| --- | --- | --- | --- |
| CC[C@H](C)[C@H](NC)C(=O)N[C@H](C(=O)N[C@@H](CC(C)C)C(=O)N[C@@H](CO)C(=O)N[C@@H](CC(C)C)C(=O)N[C@@H](CC(=O)O)C(=O)N[C@@H](C(=O)N1CCC[C@H]1C(=O)N[C@H](C(=O)N[C@@H](CCCCN)C(=O)N[C@@H](CC(C)C)C(=O)N[C@@H](CCCCNC(=O)CC[C@H](NC(=O)CCCCCCCCCCCCCCC(=O)O)C(=O)O)C(=O)N[C@@H](CCCCN)C(=O)N[C@H](C(=O)N[C@@H](CC(C)C)C(=O)N[C@@H](CC(C)C)C(=O)N[C@@H](CCC(=O)O)C(=O)N[C@@H](CCC(N)=O)C(=O)N[C@@H](CCC(=O)O)C(=O)N[C@@H](CCCCN)C(=O)N[C@@H](CCC(N)=O)C(=O)N[C@@H](CCCCN)C(=O)N[C@@H](CCCCN)C(=O)N[C@@H](CCC(N)=O)C(=O)N[C@@H](CCCNC(=N)N)C(=O)N[C@@H](CCC(=O)O)C(=O)N[C@@H](CCC(N)=O)C(=O)N[C@@H](C)C(=O)N[C@@H](CCC(=O)O)C(=O)N[C@H](C(=O)N[C@@H](CC(N)=O)C(=O)N[C@@H](C)C(=O)N[C@@H](CCC(N)=O)C(=O)N[C@H](C(=O)N[C@@H](CC(C)C)C(=O)N[C@@H](C)C(=O)N[C@@H](CCC(N)=O)C(=O)N[C@H](C(N)=O)C(C)C)[C@@H](C)CC)[C@@H](C)O)[C@@H](C)CC)[C@@H](C)CC)C(C)C)C(C)C [compound 68] (H-[NMeI]VLSLD[dV]PIKLK([γGlu-C16 diacid])KILLEQEKQKKQREQAETNAQILAQV-NH2) | 0.05 | 8 | > 250 |
| CC[C@H](C)[C@H](NC(C)=O)C(=O)N[C@H](C(=O)N[C@@H](CC(C)C)C(=O)N[C@@H](CO)C(=O)N[C@@H](CC(C)C)C(=O)N[C@@H](CC(=O)O)C(=O)N[C@@H](C(=O)N1CCC[C@H]1C(=O)N[C@H](C(=O)N[C@@H](CCCCN)C(=O)N[C@@H](CC(C)C)C(=O)N[C@@H](CCCCNC(=O)COCCOCCNC(=O)COCCOCCNC(=O)CC[C@H](NC(=O)CCCCCCCCCCCCCCCCC(=O)O)C(=O)O)C(=O)N[C@@H](CCCCN)C(=O)N[C@H](C(=O)N[C@@H](CC(C)C)C(=O)N[C@@H](CC(C)C)C(=O)N[C@@H](CCC(=O)O)C(=O)N[C@@H](CCC(N)=O)C(=O)N[C@@H](CCC(=O)O)C(=O)N[C@@H](CCCCN)C(=O)N[C@@H](CCC(N)=O)C(=O)N[C@@H](CCCCN)C(=O)NC(C)(C)C(=O)N[C@@H](CCC(N)=O)C(=O)N[C@@H](CCCNC(=N)N)C(=O)N[C@@H](CCC(=O)O)C(=O)N[C@@H](CCC(N)=O)C(=O)N[C@@H](C)C(=O)N[C@@H](CCC(=O)O)C(=O)N[C@H](C(=O)N[C@@H](CC(N)=O)C(=O)NC1(C(=O)N[C@@H](CCC(N)=O)C(=O)N[C@H](C(=O)N[C@@H](CC(C)C)C(=O)N[C@@H](C)C(=O)N[C@@H](CCC(N)=O)C(=O)N[C@H](C(N)=O)C(C)C)[C@@H](C)CC)CCNCC1)[C@@H](C)O)[C@@H](C)CC)[C@@H](C)CC)C(C)C)C(C)C [compound 196] (Ac-IVLSLD[dV]PIKLK([AEEA-AEEA-γGlu-C18 diacid])KILLEQEKQK[Aib]QREQAETN[Api]QILAQV-NH2) | 2.2 | 9 | > 250 |
| CCCCC(=O)N[C@H](C(=O)N[C@@H](CC(C)C)C(=O)N[C@@H](CO)C(=O)N[C@@H](CC(C)C)C(=O)N[C@@H](CC(=O)O)C(=O)N[C@@H](C(=O)N1CCC[C@H]1C(=O)N[C@H](C(=O)N[C@@H](CCCCN)C(=O)N[C@@H](CC(C)C)C(=O)N[C@@H](CCCCNC(=O)CC[C@H](NC(=O)CCCCCCCCCCC(=O)O)C(=O)O)C(=O)N[C@@H](CCCCN)C(=O)N[C@H](C(=O)N[C@@H](CC(C)C)C(=O)N[C@@H](CC(C)C)C(=O)N[C@@H](CCC(=O)O)C(=O)N[C@@H](CCC(N)=O)C(=O)N[C@@H](CCC(=O)O)C(=O)N[C@@H](CCCCN)C(=O)N[C@@H](CCC(N)=O)C(=O)N[C@@H](CCCCN)C(=O)N[C@@H](CCCCN)C(=O)N[C@@H](CCC(N)=O)C(=O)N[C@@H](CCCNC(=N)N)C(=O)N[C@@H](CCC(=O)O)C(=O)N[C@@H](CCC(N)=O)C(=O)N[C@@H](C)C(=O)N[C@@H](CCC(=O)O)C(=O)N[C@H](C(=O)N[C@@H](CC(N)=O)C(=O)NC(C)(C)C(=O)N[C@@H](CCC(N)=O)C(=O)N[C@H](C(=O)N[C@@H](CC(C)C)C(=O)N[C@@H](C)C(=O)N[C@@H](CCC(N)=O)C(=O)N[C@H](C(N)=O)C(C)C)[C@@H](C)CC)[C@@H](C)O)[C@@H](C)CC)[C@@H](C)CC)C(C)C)C(C)C [compound 185] (Pentanoyl-VLSLD[dV]PIKLK([γGlu-C12 diacid])KILLEQEKQKKQREQAETN[Aib]QILAQV-NH2) | 3.54 | 2 | > 250 |
| CC[C@H](C)[C@H](NC(C)=O)C(=O)N[C@H](C(=O)N[C@@H](CC(C)C)C(=O)N[C@@H](CO)C(=O)N[C@@H](CC(C)C)C(=O)N[C@@H](CC(=O)O)C(=O)N[C@@H](C(=O)N1CCC[C@H]1C(=O)N[C@H](C(=O)N[C@@H](CCCCN)C(=O)N[C@@H](CC(C)C)C(=O)N[C@@H](CCCCNC(=O)CC[C@H](NC(=O)CCCCCCCCCCCCCCCCC(=O)O)C(=O)O)C(=O)N[C@@H](CCCCN)C(=O)N[C@H](C(=O)N[C@@H](CC(C)C)C(=O)N[C@@H](CC(C)C)C(=O)N[C@@H](CCC(=O)O)C(=O)N[C@@H](CCC(N)=O)C(=O)N[C@@H](CCC(=O)O)C(=O)N[C@@H](CCCCN)C(=O)N[C@@H](CCC(N)=O)C(=O)N[C@@H](CCCCN)C(=O)N[C@@H](CCCCN)C(=O)N[C@@H](CCC(N)=O)C(=O)N[C@@H](CCCNC(=N)N)C(=O)N[C@@H](CCC(=O)O)C(=O)N[C@@H](CCC(N)=O)C(=O)N[C@@H](C)C(=O)N[C@@H](CCC(=O)O)C(=O)N[C@H](C(=O)N[C@@H](CC(N)=O)C(=O)NC1(C(=O)N[C@@H](CCC(N)=O)C(=O)N[C@H](C(=O)N[C@@H](CC(C)C)C(=O)N[C@@H](C)C(=O)N[C@@H](CCC(N)=O)C(=O)N[C@H](C(N)=O)C(C)C)[C@@H](C)CC)CCNCC1)[C@@H](C)O)[C@@H](C)CC)[C@@H](C)CC)C(C)C)C(C)C [compound 129] (Ac-IVLSLD[dV]PIKLK([γGlu-C18 diacid])KILLEQEKQKKQREQAETN[Api]QILAQV-NH2) | 0.14 | 39 |  |
| CC[C@H](C)[C@H](NC)C(=O)N[C@H](C(=O)N[C@@H](CC(C)C)C(=O)N[C@@H](CO)C(=O)N[C@@H](CC(C)C)C(=O)N[C@@H](CC(=O)O)C(=O)N[C@@H](C(=O)N1CCC[C@H]1C(=O)N[C@H](C(=O)N[C@@H](CCCCN)C(=O)N[C@@H](CC(C)C)C(=O)N[C@@H](CCCCNC(=O)CC[C@H](NC(=O)CCCCCCCCCCCCCCCCC(=O)O)C(=O)O)C(=O)N[C@@H](CCCCN)C(=O)N[C@H](C(=O)N[C@@H](CC(C)C)C(=O)N[C@@H](CC(C)C)C(=O)N[C@@H](CCC(=O)O)C(=O)N[C@@H](CCC(N)=O)C(=O)N[C@@H](CCC(=O)O)C(=O)N[C@@H](CCCCN)C(=O)N[C@@H](CCC(N)=O)C(=O)N[C@@H](CCCCN)C(=O)N[C@@H](CCCCN)C(=O)N[C@@H](CCC(N)=O)C(=O)N[C@@H](CCCNC(=N)N)C(=O)N[C@@H](CCC(=O)O)C(=O)N[C@@H](CCC(N)=O)C(=O)N[C@@H](C)C(=O)N[C@@H](CCC(=O)O)C(=O)N[C@H](C(=O)N[C@@H](CC(N)=O)C(=O)NC1(C(=O)N[C@@H](CCC(N)=O)C(=O)N[C@H](C(=O)N[C@@H](CC(C)C)C(=O)N[C@@H](C)C(=O)N[C@@H](CCC(N)=O)C(=O)N[C@H](C(N)=O)C(C)C)[C@@H](C)CC)CCNCC1)[C@@H](C)O)[C@@H](C)CC)[C@@H](C)CC)C(C)C)C(C)C [compound 141] (H-[NMeI]VLSLD[dV]PIKLK([γGlu-C18 diacid])KILLEQEKQKKQREQAETN[Api]QILAQV-NH2) | 0.16 | 32 | > 250 |
